From patent US9273040B2 (Merck Sharp & Dohme Corp., priority 2011, dated 2016)

Tests used:
[1] = target: T1, human Nav1.7 channels stably expressed in HEK 293 cells (Homo sapiens, UniProt Q15858); assay: PatchXpress 7000 automated patch-clamp, sodium current; type: cell-based; conditions: 22° C., read-out: potency for the Nav 1.7 sodium ion channel (as measured by PatchXpress)
T1 construct: expressed in transfected cells
Method in brief: (§1)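 IC50 values came from Hill-equation fits of rundown-corrected inhibition. PatchXpress recordings at 22° C held cells 20 mV negative to V0.5 inact and applied 10 Hz trains of 30 ms steps to −20 mV (Nav1.7) or an 8000 ms prepulse 7 mV positive to V0.5 inact. […]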

[2] = target: T2, human Nav1.5 channels stably expressed in HEK 293 cells (Homo sapiens, UniProt Q14524); assay: as above; type: cell-based; conditions: selectivity over Nav1.5
T2 construct: expressed in transfected cells
T2 sequence (Q14524 whole entry): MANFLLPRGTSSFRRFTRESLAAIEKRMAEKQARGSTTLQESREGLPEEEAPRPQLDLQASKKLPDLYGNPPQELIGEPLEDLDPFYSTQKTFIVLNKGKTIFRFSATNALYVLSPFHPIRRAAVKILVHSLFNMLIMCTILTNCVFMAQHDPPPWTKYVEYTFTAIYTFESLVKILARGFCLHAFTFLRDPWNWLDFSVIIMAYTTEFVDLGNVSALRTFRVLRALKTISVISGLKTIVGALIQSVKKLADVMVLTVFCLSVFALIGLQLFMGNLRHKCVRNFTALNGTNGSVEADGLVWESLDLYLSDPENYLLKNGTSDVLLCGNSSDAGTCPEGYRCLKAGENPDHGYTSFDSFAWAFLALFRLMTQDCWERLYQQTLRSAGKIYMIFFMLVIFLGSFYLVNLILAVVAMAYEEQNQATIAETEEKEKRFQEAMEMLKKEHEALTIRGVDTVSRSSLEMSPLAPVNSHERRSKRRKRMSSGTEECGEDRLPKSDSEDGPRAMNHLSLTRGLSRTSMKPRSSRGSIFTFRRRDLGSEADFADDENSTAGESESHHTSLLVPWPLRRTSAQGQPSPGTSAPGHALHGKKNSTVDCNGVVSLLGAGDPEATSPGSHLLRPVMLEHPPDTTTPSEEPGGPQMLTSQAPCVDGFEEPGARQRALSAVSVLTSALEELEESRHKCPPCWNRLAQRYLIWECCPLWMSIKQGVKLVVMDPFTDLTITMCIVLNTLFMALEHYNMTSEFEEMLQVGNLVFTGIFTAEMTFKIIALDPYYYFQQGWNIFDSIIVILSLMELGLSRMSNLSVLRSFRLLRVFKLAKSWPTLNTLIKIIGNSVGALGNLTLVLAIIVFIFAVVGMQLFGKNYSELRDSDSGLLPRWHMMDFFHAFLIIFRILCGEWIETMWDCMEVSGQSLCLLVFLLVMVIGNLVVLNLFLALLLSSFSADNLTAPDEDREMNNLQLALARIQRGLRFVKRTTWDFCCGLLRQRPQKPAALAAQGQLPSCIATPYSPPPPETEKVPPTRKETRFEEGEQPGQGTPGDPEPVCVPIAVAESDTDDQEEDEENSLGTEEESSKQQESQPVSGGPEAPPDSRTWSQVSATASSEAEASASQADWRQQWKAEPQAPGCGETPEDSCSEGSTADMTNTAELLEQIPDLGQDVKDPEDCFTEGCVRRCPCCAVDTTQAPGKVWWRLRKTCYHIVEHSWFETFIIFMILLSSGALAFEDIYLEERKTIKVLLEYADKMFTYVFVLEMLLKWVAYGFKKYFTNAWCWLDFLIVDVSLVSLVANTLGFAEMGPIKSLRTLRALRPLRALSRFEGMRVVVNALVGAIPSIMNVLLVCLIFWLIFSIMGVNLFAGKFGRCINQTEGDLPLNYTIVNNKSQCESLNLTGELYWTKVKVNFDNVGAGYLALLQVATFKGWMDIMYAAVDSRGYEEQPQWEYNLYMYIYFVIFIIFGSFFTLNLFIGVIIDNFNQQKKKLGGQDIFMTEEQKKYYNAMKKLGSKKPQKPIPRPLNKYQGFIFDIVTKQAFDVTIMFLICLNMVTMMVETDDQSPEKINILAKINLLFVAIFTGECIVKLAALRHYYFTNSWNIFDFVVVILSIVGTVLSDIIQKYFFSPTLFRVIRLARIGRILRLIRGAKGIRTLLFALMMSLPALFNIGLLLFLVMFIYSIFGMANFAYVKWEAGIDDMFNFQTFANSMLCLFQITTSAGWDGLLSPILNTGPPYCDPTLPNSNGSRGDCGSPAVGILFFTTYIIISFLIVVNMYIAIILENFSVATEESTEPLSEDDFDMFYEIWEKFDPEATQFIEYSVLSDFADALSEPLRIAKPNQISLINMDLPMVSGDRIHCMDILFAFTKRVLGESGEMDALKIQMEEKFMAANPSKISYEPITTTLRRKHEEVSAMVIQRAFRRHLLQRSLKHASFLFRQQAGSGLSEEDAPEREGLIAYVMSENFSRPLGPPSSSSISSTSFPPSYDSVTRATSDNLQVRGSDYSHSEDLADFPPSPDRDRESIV
Method in brief: as §1

T1 sequence (Q15858 whole entry): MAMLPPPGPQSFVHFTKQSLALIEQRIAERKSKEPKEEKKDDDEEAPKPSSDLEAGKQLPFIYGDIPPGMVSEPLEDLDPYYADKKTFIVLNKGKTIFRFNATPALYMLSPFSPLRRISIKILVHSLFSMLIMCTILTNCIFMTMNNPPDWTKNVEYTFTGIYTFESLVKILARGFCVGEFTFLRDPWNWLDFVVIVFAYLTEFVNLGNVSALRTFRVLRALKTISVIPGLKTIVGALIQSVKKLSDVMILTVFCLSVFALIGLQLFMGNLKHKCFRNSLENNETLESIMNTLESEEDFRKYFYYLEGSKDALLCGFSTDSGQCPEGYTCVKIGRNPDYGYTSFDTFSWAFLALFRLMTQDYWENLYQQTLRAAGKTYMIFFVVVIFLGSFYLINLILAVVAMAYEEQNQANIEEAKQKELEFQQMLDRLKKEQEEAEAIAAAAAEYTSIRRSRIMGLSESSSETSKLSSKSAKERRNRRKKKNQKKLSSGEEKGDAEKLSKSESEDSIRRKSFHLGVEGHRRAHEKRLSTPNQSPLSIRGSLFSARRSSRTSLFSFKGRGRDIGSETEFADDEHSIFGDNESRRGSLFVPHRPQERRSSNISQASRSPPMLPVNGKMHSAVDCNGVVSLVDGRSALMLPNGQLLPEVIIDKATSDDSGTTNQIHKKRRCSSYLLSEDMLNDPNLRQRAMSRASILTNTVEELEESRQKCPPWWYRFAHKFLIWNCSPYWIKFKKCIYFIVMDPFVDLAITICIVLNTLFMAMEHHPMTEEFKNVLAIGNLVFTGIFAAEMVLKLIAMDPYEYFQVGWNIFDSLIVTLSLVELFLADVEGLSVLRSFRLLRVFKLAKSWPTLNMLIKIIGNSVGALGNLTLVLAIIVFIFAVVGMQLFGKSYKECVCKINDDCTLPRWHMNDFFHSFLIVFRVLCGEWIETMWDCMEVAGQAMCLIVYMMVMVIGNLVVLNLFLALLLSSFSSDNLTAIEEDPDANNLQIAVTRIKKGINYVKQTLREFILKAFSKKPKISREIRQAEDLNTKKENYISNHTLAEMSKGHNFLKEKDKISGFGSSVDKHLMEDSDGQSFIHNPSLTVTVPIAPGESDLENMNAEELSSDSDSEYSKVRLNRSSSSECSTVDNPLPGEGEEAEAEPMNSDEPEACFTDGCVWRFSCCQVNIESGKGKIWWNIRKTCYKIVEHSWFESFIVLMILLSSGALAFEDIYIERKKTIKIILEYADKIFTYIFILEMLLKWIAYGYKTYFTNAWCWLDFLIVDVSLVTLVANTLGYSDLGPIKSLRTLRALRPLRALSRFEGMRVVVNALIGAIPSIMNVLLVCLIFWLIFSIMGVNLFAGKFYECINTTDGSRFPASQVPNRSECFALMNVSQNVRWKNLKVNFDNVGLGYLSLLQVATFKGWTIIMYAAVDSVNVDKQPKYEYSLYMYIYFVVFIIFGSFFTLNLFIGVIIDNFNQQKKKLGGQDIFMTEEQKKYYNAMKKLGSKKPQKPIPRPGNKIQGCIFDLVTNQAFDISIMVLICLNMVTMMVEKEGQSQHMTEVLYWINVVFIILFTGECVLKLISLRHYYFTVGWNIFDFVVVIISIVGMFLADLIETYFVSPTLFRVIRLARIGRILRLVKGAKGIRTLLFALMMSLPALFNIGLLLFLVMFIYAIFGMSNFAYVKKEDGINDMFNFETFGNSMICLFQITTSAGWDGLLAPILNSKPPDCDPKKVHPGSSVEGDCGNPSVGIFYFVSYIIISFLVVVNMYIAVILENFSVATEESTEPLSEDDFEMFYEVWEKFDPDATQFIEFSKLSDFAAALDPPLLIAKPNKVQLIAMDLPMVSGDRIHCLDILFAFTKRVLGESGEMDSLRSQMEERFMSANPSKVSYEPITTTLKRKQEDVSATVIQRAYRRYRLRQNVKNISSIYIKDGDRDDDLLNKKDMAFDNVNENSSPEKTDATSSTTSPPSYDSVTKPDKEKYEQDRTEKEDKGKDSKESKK

Row | Compound | IC50 [1] [nM] | ratio of Nav 1.5:Nav 1.7 potency, determined by PatchXpress measurement [2]
1 | C[C@H](c1ccccc1C#CCC(C)(C)N)n1c(=O)oc2cc(S(=O)(=O)Nc3ncns3)c(F)cc21 [Compound 17-15, 3-{(1R)-1-[2-(4-amino-4-methylpent-1-yn-1-yl)phenyl]ethyl}-5-fluoro-2-oxo-N-1,2,4-thiadiazol-5-yl-2,3-dihydro-1,3-benzoxazole-6-sulfonamide] | 32 | 1566
2 | C[C@H](c1ccccc1C#CC1CNC1)n1c(=O)oc2cc(S(=O)(=O)Nc3ncns3)c(F)cc21 [Compound 17-16, 3-{(1R)-1-[2-(azetidin-3-ylethynyl)phenyl]ethyl}-5-fluoro-2-oxo-N-1,2,4-thiadiazol-5-yl-2,3-dihydro-1,3-benzoxazole-6-sulfonamide] | 31 | 973
3 | C[C@H](c1ccccc1C#C[C@@H]1CCCN1)n1c(=O)oc2cc(S(=O)(=O)Nc3ncns3)c(F)cc21 [Compound 17-17, 5-fluoro-2-oxo-3-[(1R)-1-{2-[(2S)-pyrrolidin-2-ylethynyl]phenyl}ethyl]-N-1,2,4-thiadiazol-5-yl-2,3-dihydro-1,3-benzoxazole-6-sulfonamide] | 29 | 1034
4 | C[C@H](c1ccccc1C#CCN1CCC1)n1c(=O)oc2cc(S(=O)(=O)Nc3ncns3)c(F)cc21 [Compound 17-18, 3-{(1R)-1-[2-(3-azetidin-1-ylprop-1-yn-1-yl)phenyl]ethyl}-5-fluoro-2-oxo-N-1,2,4-thiadiazol-5-yl-2,3-dihydro-1,3-benzoxazole-6-sulfonamide] | 28 | 1085
5 | CC(N)C#Cc1ccccc1[C@@H](C)n1c(=O)oc2cc(S(=O)(=O)Nc3ncns3)c(F)cc21 (stereo partly drawn) [Compound 17-19, 3-{(1R)-1-[2-(3-aminobut-1-yn-1-yl)phenyl]ethyl}-5-fluoro-2-oxo-N-1,2,4-thiadiazol-5-yl-2,3-dihydro-1,3-benzoxazole-6-sulfonamide] | 22 | 1390
6 | C[C@H](c1ccccc1C#CCN)n1c(=O)oc2cc(S(=O)(=O)Nc3ncns3)c(F)cc21 [Compound 17-20, 3-{(1R)-1-[2-(3-aminoprop-1-yn-1-yl)phenyl]ethyl}-5-fluoro-2-oxo-N-1,2,4-thiadiazol-5-yl-2,3-dihydro-1,3-benzoxazole-6-sulfonamide] | 13 | 2324
7 | C[C@H](c1ccccc1C#C[C@H]1CCCN1)n1c(=O)oc2cc(S(=O)(=O)Nc3ncns3)c(F)cc21 [Compound 17-21, 5-fluoro-2-oxo-3-[(1R)-1-{2-[(2R)-pyrrolidin-2-ylethynyl]phenyl}ethyl]-N-1,2,4-thiadiazol-5-yl-2,3-dihydro-1,3-benzoxazole-6-sulfonamide] | 13 | 2344
8 | C[C@H](c1ccccc1C#CC1CCCCN1)n1c(=O)oc2cc(S(=O)(=O)Nc3ncns3)c(F)cc21 (stereo partly drawn) [Compound 17-22, 5-fluoro-2-oxo-3-{(1R)-1-[2-(piperidin-2-ylethynyl)phenyl]ethyl}-N-1,2,4-thiadiazol-5-yl-2,3-dihydro-1,3-benzoxazole-6-sulfonamide] | 13 | 1456
9 | C[C@H](c1ccccc1C#CC1(N)CCCCC1)n1c(=O)oc2cc(S(=O)(=O)Nc3ncns3)c(F)cc21 [Compound 17-23, 3-[(1R)-1-{2-[(1-aminocyclohexyl)ethynyl]phenyl}ethyl]-5-fluoro-2-oxo-N-1,2,4-thiadiazol-5-yl-2,3-dihydro-1,3-benzoxazole-6-sulfonamide] | 12 | 2477
10 | C[C@H](c1ccccc1CN1CCCC1)n1c(=O)oc2cc(S(=O)(=O)Nc3ncns3)c(F)cc21 [Compound 18-2, (R)-5-fluoro-2-oxo-3-(1-(2-(pyrrolidin-1-ylmethyl)phenyl)ethyl)-N-(1,2,4-thiadiazol-5-yl)-2,3-dihydrobenzo[d]oxazole-6-sulfonamide] | 24 | 446
11 | C[C@H](c1ccccc1CN1CCC(F)(F)C1)n1c(=O)oc2cc(S(=O)(=O)Nc3ncns3)c(F)cc21 [Compound 18-3, 3-[(1R)-1-{2-[(3,3-difluoropyrrolidin-1-yl)methyl]phenyl}ethyl]-5-fluoro-2-oxo-N-1,2,4-thiadiazol-5-yl-2,3-dihydro-1,3-benzoxazole-6-sulfonamide] | 768 | 15
12 | C[C@H](c1ccccc1CN1CCC(F)C1)n1c(=O)oc2cc(S(=O)(=O)Nc3ncns3)c(F)cc21 (stereo partly drawn) [Compound 18-4, 5-fluoro-3-[(1R)-1-{2-[(3-fluoropyrrolidin-1-yl)methyl]phenyl}ethyl]-2-oxo-N-1,2,4-thiadiazol-5-yl-2,3-dihydro-1,3-benzoxazole-6-sulfonamide] | 132 | 82
13 | C[C@H](c1ccccc1CN(C)C)n1c(=O)oc2cc(S(=O)(=O)Nc3ncns3)c(F)cc21 [Compound 18-5, 3-[(1R)-1-{2-[(dimethylamino)methyl]phenyl}ethyl]-5-fluoro-2-oxo-N-1,2,4-thiadiazol-5-yl-2,3-dihydro-1,3-benzoxazole-6-sulfonamide] | 13 | 525
14 | Cl.O=c1oc2cc(S(=O)(=O)Nc3ncns3)c(F)cc2n1Cc1cccc2c1CC(N1CC(F)(F)C1)CC2 (stereo not drawn) [Compound 19-6, 3-((7-(3,3-difluoroazetidin-1-yl)-5,6,7,8-tetrahydronaphthalen-1-yl)methyl)-5-fluoro-2-oxo-N-(1,2,4-thiadiazol-5-yl)-2,3-dihydrobenzo[d]oxazole-6-sulfonamide hydrochloride] | 118 | 103
15 | O=c1oc2cc(S(=O)(=O)Nc3ncns3)c(F)cc2n1Cc1cccc2c1CC(O)CC2 (stereo not drawn) [Compound 21-1, 5-fluoro-3-((7-hydroxy-5,6,7,8-tetrahydronaphthalen-1-yl)methyl)-2-oxo-N-(1,2,4-thiadiazol-5-yl)-2,3-dihydrobenzo[d]oxazole-6-sulfonamide] | 121 | 113
16 | CC(=O)NC1CCc2cccc(Cn3c(=O)oc4cc(S(=O)(=O)Nc5ncns5)c(F)cc43)c2C1 (stereo not drawn) [Compound 22-1, N-(8-((6-(N-(1,2,4-thiadiazol-5-yl)sulfamoyl)-5-fluoro-2-oxobenzo[d]oxazol-3(2H)-yl)methyl)-1,2,3,4-tetrahydronaphthalen-2-yl)acetamide] | 175 | 172
17 | Cl.O=c1oc2cc(S(=O)(=O)Nc3ncns3)c(F)cc2n1Cc1cccc2c1CNCC2F (stereo not drawn) [Compound 24-9, 5-fluoro-3-((4-fluoro-1,2,3,4-tetrahydroisoquinolin-8-yl)methyl)-2-oxo-N-(1,2,4-thiadiazol-5-yl)-2,3-dihydrobenzo[d]oxazole-6-sulfonamide hydrochloride] | 183 | 704
18 | Nc1cc2c(Cn3c(=O)oc4cc(S(=O)(=O)Nc5ncns5)c(F)cc43)cccc2cn1 [Compound 26-5, 3-((3-Aminoisoquinolin-5-yl)methyl)-5-fluoro-2-oxo-N-(1,2,4-thiadiazol-5-yl)-2,3-dihydrobenzo[d]oxazole-6-sulfonamide] | 67 | 450
